Columns and labels:
SARS-CoV-2 [1] = settings: 35 compounds tested
SARS-CoV-2/WA1 = assay type: cell-based; settings: Severe acute respiratory syndrome coronavirus 2, HeLa-ACE2
SARS-CoV-2 [2] = assay: microbe, parasite or virus in culture; settings: Severe acute respiratory syndrome coronavirus 2, HeLa-ACE2, 24 h
in vitro = settings: human, EC50, compound toxicity in the context of infection, total cell numbers per well; average±sem of 5 independent experiments

SMILES | activity in the HeLa-ACE2 cell-based SARS-CoV-2 assay (SARS-CoV-2 [1]) | IC50 (SARS-CoV-2/WA1) | EC50 (SARS-CoV-2 [2]) | EC50 (in vitro)
Cc1c2c(nn1C)CSCc1cc(n(C)n1)CSc1cc(c3ccccc3c1)OCCCc1c(C(=O)O)n(C)c3c-2c(Cl)ccc13 [AZD-5991] | demonstrated activity | – | – | –
COc1cc(Cl)cc(C(C)Nc2cc(N3CCNCC3)ccc2S(C)(=O)=O)c1OC.Cl (stereo not shown) [PRX-07034] | demonstrated activity | – | – | –
CNCc1ccc(-c2cc(-c3nc(-c4ccc(S(=O)(=O)C(C)C)cc4)cnc3N)on2)cc1 [berzosertib, reference compound] | demonstrated activity | 0.11 µM | 0.114 µM | –
COc1ccc(C[C@H](N)C(=O)N[C@H]2[C@@H](O)[C@H](n3cnc4c(N(C)C)ncnc43)O[C@@H]2CO)cc1 [puromycin] | – | – | – | 0.547 ± 0.027 µM
Nc1ncnc2c1nc(Cl)n2[C@@H]1O[C@@H]2COP(=O)(O)O[C@H]2[C@H]1O [tocladesine] | demonstrated activity | – | – | –

Reference: patent publication US20250025454A1 (priority 2021, published 2025)
